These results are taken from patent US20240360151A1 (SANOFI, priority 2023, published 2024).

As usually defined, the IC50 is the concentration needed to halve the response being measured.

The structures appear in SMILES notation. Where only a bound is given, the exact number is not on record here.

The test deals with T1, NLRP3 inflammasome (Homo sapiens, UniProt Q96P20).
T1 construct: endogenous in cells; host or cells: THP-1 monocytic cells
T1 sequence (Q96P20 whole entry): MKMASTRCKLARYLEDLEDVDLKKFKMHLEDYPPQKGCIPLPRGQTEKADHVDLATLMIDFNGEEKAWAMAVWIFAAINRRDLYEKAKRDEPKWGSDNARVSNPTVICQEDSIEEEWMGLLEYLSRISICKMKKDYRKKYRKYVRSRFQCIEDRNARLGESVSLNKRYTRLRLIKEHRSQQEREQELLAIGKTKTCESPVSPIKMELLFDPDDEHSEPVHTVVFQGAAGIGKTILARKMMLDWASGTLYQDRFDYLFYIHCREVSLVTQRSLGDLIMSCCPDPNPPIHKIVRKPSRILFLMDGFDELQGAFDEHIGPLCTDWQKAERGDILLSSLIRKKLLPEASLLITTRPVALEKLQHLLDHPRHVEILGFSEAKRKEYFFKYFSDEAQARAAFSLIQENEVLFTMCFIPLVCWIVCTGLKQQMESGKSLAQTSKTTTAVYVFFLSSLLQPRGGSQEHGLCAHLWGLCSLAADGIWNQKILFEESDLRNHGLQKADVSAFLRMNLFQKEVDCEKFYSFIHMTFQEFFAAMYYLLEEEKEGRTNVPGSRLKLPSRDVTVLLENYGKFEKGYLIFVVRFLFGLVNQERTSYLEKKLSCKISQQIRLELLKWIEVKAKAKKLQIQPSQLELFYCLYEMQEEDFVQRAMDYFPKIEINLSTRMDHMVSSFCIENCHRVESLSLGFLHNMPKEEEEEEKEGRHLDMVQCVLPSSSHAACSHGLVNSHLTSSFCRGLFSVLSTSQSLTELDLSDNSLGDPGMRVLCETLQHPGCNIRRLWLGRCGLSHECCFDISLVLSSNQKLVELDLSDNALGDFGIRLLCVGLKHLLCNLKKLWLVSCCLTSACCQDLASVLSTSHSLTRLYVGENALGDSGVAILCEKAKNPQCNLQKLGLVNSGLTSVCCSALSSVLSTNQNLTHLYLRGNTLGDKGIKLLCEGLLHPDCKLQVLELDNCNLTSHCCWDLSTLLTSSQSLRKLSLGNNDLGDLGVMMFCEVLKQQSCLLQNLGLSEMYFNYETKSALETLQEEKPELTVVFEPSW
Briefly: IL-1β secretion assay (NLRP3 IC50) in LPS-primed, nigericin-activated THP-1 cells, HTRF. The format is cell-based. The following applies: monocytic THP-1 cells; LPS 10 ng/mL 3 h priming, then compound + nigericin 10 μM 2 h; relative IC50, 10 concentrations, geometric mean. The protocol:
Monocytic THP-1 cells were maintained in RPMI 1640 media (Gibco 21875)+10% FBS, (Gibco 10500)+1% penicillin/streptomycin (Gibco 15140-122). Cells were then plated at 40,000 cells per well in 384-well cell culture plates (CoRNning 3542) and maintained with RPMI1640 (Gibco 11835)+5% FBS (Gibco 10500). Activation of the NLRP3 inflammasome requires both an NF-kB-dependent priming step and the addition of a NLRP3 activator. The priming step was induced by LPS (10 ng/mL, InvivoGen ref tlrl-3pelps) for 3 h at 37° C., then compound, in a 1:3 serial dilution series in DMSO (final concentration DMSO 0.1%), and the activator nigericin (Sigma Aldrich, ref: SML1779) 10 μM (final concentration) were added to the cells and co-incubated for 2 hours. 16 μL supernatant was removed, and IL-1β levels were monitored using an HTRF assay (Human IL1b Kits HTRF Cisbio ref: 62HILBPEH) according to manufacturers' instructions.
Data were expressed as percentage of inhibition (I %) as compared to a maximum signal control containing no small molecule (I %=0%) according to the formula: 1%=(1−((Sample−Min))/((Max−Min)))×100, where: • Sample: Signal obtained in the presence of each compound tested, • Max: Maximum signal in the absence of compound added, • Min: Minimum or background signal obtained in the absence of activation signal.
Relative IC50 (IC50 rel) were obtained from a dose response curve with 10 concentrations. Final IC50 rels are expressed as the geometric mean.
Relative IC50 values were estimated with Biost@t-SPEED v2.4 internal software based on SAS system using the 4-parameter logistic model according to Ratkovsky and Reedy (D. A. Ratkovsky, T. J. Reedy, Choosing near-linear parameters in the four parameters logistic model radioligands and related assays. Biometrics, 42 (1986), 575-582): Y=A+C/((1+exp(−B*(log(X)−M)))), where: • A: Lower asymptote (BOTTOM), • A+C: Upper asymptote (TOP), • M: the logarithm of the concentration estimated at the inflexion point (the logarithm of the relative IC50), • B: Slope at the inflexion point of the curve.
(TR-FRET usually uses a lanthanide donor and a delayed reading to cut background.)
On to `Cc1cc(N2CC[C@H]3CCN(C)C[C@H]32)nnc1-c1ccc(Cl)cc1O` (single isomer, unassigned) [Example 469], for which the half-inhibitory concentration (IC50) stood at 1 nM.

With `CCN1CC[C@@H]2CCN(c3ccc(-c4c(O)cccc4C(F)(F)F)nn3)[C@@H]2C1` (single isomer, unassigned) [Example 473], the IC50 is 5 nM.

As for `CCN1CC[C@@H]2CCN(c3cc(C)c(-c4ccc(C)cc4O)nn3)[C@@H]2C1` (single isomer, unassigned) [Example 474], the IC50 was under 0.3 nM.

As to `CCN1CC[C@H]2CCN(c3cc(C)c(-c4ccc(C)cc4O)nn3)[C@H]2C1` (single isomer, unassigned) [Example 475], the concentration for half-maximal inhibition (IC50) stood at 93 nM.

For `CCc1cc(C)cc(O)c1-c1ccc(N2CC[C@H]3CCN(C)C[C@H]32)nn1` (single isomer, unassigned) [Example 476], the IC50 came to 209 nM.

Turning to `CCc1cc(C)cc(O)c1-c1ccc(N2CC[C@@H]3CCN(C)C[C@@H]32)nn1` (single isomer, unassigned) [Example 477], the half-maximal inhibitory concentration (IC50) is under 0.3 nM.

In the case of `CN1CC[C@@H]2CCN(c3cc(C(F)F)c(-c4ccc(C(F)(F)F)cc4O)nn3)[C@@H]2C1` (single isomer, unassigned) [Example 482], the half-inhibitory concentration (IC50) is 172 nM.

Regarding `CN1CC[C@H]2CCN(c3cc(C(F)F)c(-c4ccc(C(F)(F)F)cc4O)nn3)[C@H]2C1` (single isomer, unassigned) [Example 483], the half-maximal inhibitory concentration (IC50) is 1 nM.

For `CCN1CC[C@@H]2CCN(c3cc(C(F)F)c(-c4ccc(C(F)(F)F)cc4O)nn3)[C@@H]2C1` (single isomer, unassigned) [Example 485], the IC50 is 45 nM.

For the compound `CCN1CC[C@H]2CCN(c3cc(C(F)F)c(-c4ccc(C(F)(F)F)cc4O)nn3)[C@H]2C1` (single isomer, unassigned) [Example 486], the half-maximal inhibitory concentration (IC50) was under 0.3 nM.

`Cc1cc(C)c(-c2cc(C(F)F)c(N3CC[C@H]4CCN(C)C[C@H]43)nn2)c(O)c1` (single isomer, unassigned) [Example 487]: the IC50 worked out at 1 nM.

On to `Cc1cc(C)c(-c2cc(C(F)F)c(N3CC[C@@H]4CCN(C)C[C@@H]43)nn2)c(O)c1` (single isomer, unassigned) [Example 488], for which the IC50 turned out to be 912 nM.

`CCN1CC[C@@H]2CCN(c3cc(C(F)F)c(-c4ccc(C)cc4O)nn3)[C@@H]2C1` (single isomer, unassigned) [Example 489]: the IC50 came to 232 nM.

For the compound `CCN1CC[C@H]2CCN(c3cc(C(F)F)c(-c4ccc(C)cc4O)nn3)[C@H]2C1` (single isomer, unassigned) [Example 490], the half-maximal inhibitory concentration (IC50) turned out to be 1 nM.

Turning to `CCc1cc(C(F)(F)F)cc(O)c1-c1ccc(N2CC[C@H]3CCN(C)C[C@H]32)nn1` (single isomer, unassigned) [Example 491], the 50% inhibitory concentration (IC50) was 185 nM.

Regarding `CCc1cc(C(F)(F)F)cc(O)c1-c1ccc(N2CC[C@@H]3CCN(C)C[C@@H]32)nn1` (single isomer, unassigned) [Example 492], the IC50 worked out at 3 nM.

Turning to `CCc1cc(Cl)cc(O)c1-c1ccc(N2CC[C@H]3CCN(C)C[C@H]32)nn1` (single isomer, unassigned) [Example 493], the IC50 turned out to be 171 nM.

For `CCc1cc(Cl)cc(O)c1-c1ccc(N2CC[C@@H]3CCN(C)C[C@@H]32)nn1` (single isomer, unassigned) [Example 494], the half-inhibitory concentration (IC50) turned out to be 1 nM.

Regarding `CCN1CC[C@H]2CCN(c3ccc(-c4c(C)cc(Cl)cc4O)nn3)[C@H]2C1` (single isomer, unassigned) [Example 496], the IC50 amounted to 546 nM.

As to `CCN1CC[C@H]2CCN(c3ccc(-c4c(C)cc(Cl)cc4O)nn3)[C@H]2C1` (single isomer, unassigned) [Example 497], the IC50 is 0.4 nM.

As for `CCN1CC[C@H]2CCN(c3ccc(-c4c(C)cccc4O)nn3)[C@H]2C1` (single isomer, unassigned) [Example 498], the concentration for half-maximal inhibition (IC50) turned out to be 951 nM.

As for `CCN1CC[C@@H]2CCN(c3ccc(-c4c(C)cccc4O)nn3)[C@@H]2C1` (single isomer, unassigned) [Example 499], the IC50 stood at 3 nM.

Consider `CN1CC[C@H]2CCN(c3cc(C(F)F)c(-c4ccc(Cl)cc4O)nn3)[C@H]2C1` (single isomer, unassigned) [Example 500], for which the IC50 worked out at 62 nM.

For the compound `CN1CC[C@@H]2CCN(c3cc(C(F)F)c(-c4ccc(Cl)cc4O)nn3)[C@@H]2C1` (single isomer, unassigned) [Example 501], the IC50 was under 0.3 nM.

`Cc1cc(Cl)cc(O)c1-c1ccc(N2CC[C@@H]3CCN(C)C[C@@H]32)nn1` (single isomer, unassigned) [Example 502]: the IC50 stood at 347 nM.

`Cc1cc(Cl)cc(O)c1-c1ccc(N2CC[C@H]3CCN(C)C[C@H]32)nn1` (single isomer, unassigned) [Example 503]: the half-inhibitory concentration (IC50) stood at 0.5 nM.

On to `CCN1CC[C@H]2CCN(c3ccc(-c4c(C)cc(C)cc4O)nn3)[C@H]2C1` (single isomer, unassigned) [Example 504], for which the IC50 stood at 1080 nM.

Consider `CCN1CC[C@@H]2CCN(c3ccc(-c4c(C)cc(C)cc4O)nn3)[C@@H]2C1` (single isomer, unassigned) [Example 505], for which the IC50 was 0.4 nM.

As to `Cc1ccc(-c2nnc(N3CC[C@@H]4CCN(C)C[C@@H]43)cc2C(F)F)c(O)c1` (single isomer, unassigned) [Example 506], the IC50 turned out to be 135 nM.

As for `Cc1ccc(-c2nnc(N3CC[C@H]4CCN(C)C[C@H]43)cc2C(F)F)c(O)c1` (single isomer, unassigned) [Example 507], the IC50 came out at 1 nM.

Turning to `CC(=O)N1CC[C@@H]2CCN(c3cc(C(F)F)c(-c4ccc(C(F)(F)F)cc4O)nn3)[C@@H]2C1` (single isomer, unassigned) [Example 510], the IC50 came out at 280 nM.

With `CC(=O)N1CC[C@H]2CCN(c3cc(C(F)F)c(-c4ccc(C(F)(F)F)cc4O)nn3)[C@H]2C1` (single isomer, unassigned) [Example 511], the half-inhibitory concentration (IC50) was 571 nM.

With `CC(=O)N1CC[C@@H]2CCN(c3nnc(-c4c(C)cc(C)cc4O)cc3C(F)F)[C@@H]2C1` (single isomer, unassigned) [Example 512], the IC50 is 276 nM.

For `CC(=O)N1CC[C@H]2CCN(c3nnc(-c4c(C)cc(C)cc4O)cc3C(F)F)[C@H]2C1` (single isomer, unassigned) [Example 513], the IC50 is 1770 nM.

In the case of `Cc1cc(C)c(-c2ccc(N3CC4(CC[C@@H](O)C4)C3)nn2)c(O)c1` (stereo in doubt) [Example 94, 2-[6-(2-hydroxy-4,6-dimethyl-phenyl)pyridazin-3-yl]-2-azaspiro[3.4]octan-6-ol], the IC50 came out at 1920 nM.

`Cc1cc(C(F)(F)F)cc(O)c1-c1ccc(N2CCO[C@H](CO)C2=O)nn1` (stereo in doubt) [Example 368, 2-(hydroxymethyl)-4-[6-[2-hydroxy-6-methyl-4-(trifluoromethyl)phenyl]pyridazin-3-yl]morpholin-3-one]: the IC50 was determined as 188 nM.

Regarding `Cc1cc(C)c(-c2ccc(N3CCC(C#N)CC3)nn2)c(O)c1` [Example 2, 1-[6-(2-hydroxy-4,6-dimethyl-phenyl)pyridazin-3-yl]piperidine-4-carbonitrile], the IC50 is 1960 nM.
